Source: ChEMBL document CHEMBL3608202, “Biarylmethoxy 2-nitroimidazooxazine antituberculosis agents: Effects of proximal ring substitution and linker reversal on metabolism and efficacy” (Bioorg Med Chem Lett, 2015)
Converted amounts (≈) assume the structure as drawn.

Columns and labels:
[1] = system: Mycobacterium tuberculosis; assay: Antimycobacterial activity against Mycobacterium tuberculosis H37Rv after 8 days by MABA assay; assay type: functional; conditions: 192 h
[2] = system: Mycobacterium tuberculosis; assay: Antimycobacterial activity against Mycobacterium tuberculosis H37Rv after 11 days by LORA assay; assay type: functional; conditions: 264 h
Vero = assay: Cytotoxicity against African green monkey Vero cells after 72 hrs; assay type: cell-based; conditions: Chlorocebus sabaeus
[3] = Metabolic stability in CD1 mouse liver microsomes assessed as compound remaining after 1 hr; assay type: ADME; conditions: read-out: Stability
[4] = system: Mycobacterium tuberculosis; assay: Antimycobacterial activity against Mycobacterium tuberculosis infected in mouse assessed as fold reduction of colony forming units in lungs at 100 mg/kg, po administered for 5 days a week for 3 weeks beginning on day 11 post-infection relative to pretomanid; assay type: functional
[5] = Metabolic stability in human liver microsomes assessed as compound remaining after 1 hr; assay type: ADME; conditions: read-out: Stability
Plasma = assay: AUC (0 to infinity) in CD1 mouse plasma at 40 mg/kg, po; assay type: ADME, organism-based; parameters: dose 40 mg/kg, route oral, time infinity; conditions: in vivo
Lung = assay: AUC (0 to infinity) in CD1 mouse lung at 40 mg/kg, po; assay type: ADME, organism-based; parameters: dose 40 mg/kg, time infinity, route oral; conditions: in vivo
[6] = Cmax in CD1 mouse lung at 40 mg/kg, po; assay type: ADME, organism-based; parameters: dose 40 mg/kg, route oral
[7] = system: Mycobacterium tuberculosis; assay: Antimycobacterial activity against Mycobacterium tuberculosis infected in mouse assessed as fold reduction of colony forming units in lungs at 100 mg/kg, po administered for 5 days a week for 3 weeks beginning on day 70 post-infection relative to control; assay type: functional
[8] = Half life in CD1 mouse plasma at 40 mg/kg, po; assay type: ADME, organism-based
[9] = Half life in CD1 mouse lung at 40 mg/kg, po; assay type: ADME, organism-based
[10] = Cmax in CD1 mouse plasma at 40 mg/kg, po; assay type: ADME, organism-based; parameters: dose 40 mg/kg, route oral
[11] = Ratio of AUC (0 to infinity) in CD1 mouse lung to AUC (0 to infinity) in CD1 mouse plasma at 40 mg/kg, po; assay type: ADME, organism-based; conditions: read-out: Ratio AUC
[12] = system: Mycobacterium tuberculosis; assay: Ratio of pretomanid MIC90 to compound MIC90 for Mycobacterium tuberculosis H37Rv after 8 days by MABA assay; assay type: functional
[13] = system: Mycobacterium tuberculosis; assay: Ratio of pretomanid MIC90 to compound MIC90 for Mycobacterium tuberculosis H37Rv after 11 days by LORA assay; assay type: functional

| SMILES | MIC90 [1] | MIC90 [2] | IC50 (Vero) | remaining at 1 h [3] | remaining at 1 h [5] | other results |
| --- | --- | --- | --- | --- | --- | --- |
| O=[N+]([O-])c1cn2c(n1)OCC(COCc1ccc(-c3ccc(F)cc3)cc1)C2 (stereo unspecified) | 0.47 µM (≈ 0.18 µg/mL) | 7.9 µM (≈ 3.03 µg/mL) | 24 µM | – | – | – |
| O=[N+]([O-])c1cn2c(n1)OC[C@@H](OCc1ccc(-c3ccc(C(F)(F)F)nc3)c(F)c1)C2 | 0.25 µM (≈ 0.11 µg/mL) | 0.9 µM (≈ 0.395 µg/mL) | > 128 µM | – | – | – |
| O=[N+]([O-])c1cn2c(n1)OCC(COc1ccc(-c3ccc(OC(F)(F)F)cc3)cc1)C2 (stereo unspecified) | 0.14 µM (≈ 0.061 µg/mL) | > 128 µM | > 128 µM | 93% | 100% | Ratio [4]: 2 |
| O=[N+]([O-])c1cn2c(n1)OC[C@@H](OCc1ccc(-c3ccc(OC(F)(F)F)cc3)cc1Cl)C2 | 0.17 µM (≈ 0.0799 µg/mL) | 1.6 µM (≈ 0.752 µg/mL) | > 128 µM | 100% | 99% | Ratio [4]: 2.1 |
| O=[N+]([O-])c1cn2c(n1)OC[C@@H](OCc1ccc(-c3ccc(OC(F)(F)F)cc3)cc1OC(F)(F)F)C2 | 0.45 µM (≈ 0.234 µg/mL) | 7.5 µM (≈ 3.9 µg/mL) | > 128 µM | 100% | 97% | – |
| O=[N+]([O-])c1cn2c(n1)OC[C@@H](OCc1ccc(-c3ccc(C(F)(F)F)nc3)cc1F)C2 | 0.13 µM (≈ 0.057 µg/mL) | 0.68 µM (≈ 0.298 µg/mL) | > 128 µM | 78% | 96% | Ratio [4]: 13 |
| N#Cc1cc(-c2ccc(C(F)(F)F)nc2)ccc1CO[C@@H]1COc2nc([N+](=O)[O-])cn2C1 | 0.28 µM (≈ 0.125 µg/mL) | 1.1 µM (≈ 0.49 µg/mL) | > 128 µM | – | – | – |
| O=[N+]([O-])c1cn2c(n1)OC[C@@H](OCc1ccc(-c3ccc(OC(F)(F)F)cc3)cc1)C2 | – | – | – | – | – | AUC (Plasma): 198 µg/h/mL; AUC (Lung): 218 µg/h/mL |
| O=[N+]([O-])c1cn2c(n1)OCC(COc1ccc(-c3ccc(C(F)(F)F)cc3)cc1)C2 (stereo unspecified) | 0.035 µM (≈ 0.0147 µg/mL) | 100 µM (≈ 41.9 µg/mL) | > 128 µM | – | – | – |
| O=[N+]([O-])c1cn2c(n1)OC[C@@H](OCc1c(F)cc(-c3ccc(OC(F)(F)F)cc3)cc1F)C2 | 0.06 µM (≈ 0.0283 µg/mL) | 1.5 µM (≈ 0.707 µg/mL) | > 128 µM | 94% | 95% | Ratio [4]: 0.98 |
| O=[N+]([O-])c1cn2c(n1)OC[C@@H](OCc1ccc(-c3ccc(OC(F)(F)F)cc3)c(Cl)c1)C2 | 0.21 µM (≈ 0.0987 µg/mL) | 1.5 µM (≈ 0.705 µg/mL) | > 128 µM | – | – | – |
| O=[N+]([O-])c1cn2c(n1)OC[C@@H](OCc1c(F)cc(-c3ccc(C(F)(F)F)nc3)cc1F)C2 | 0.35 µM (≈ 0.16 µg/mL) | 2.9 µM (≈ 1.32 µg/mL) | 43 µM | – | – | – |
| O=[N+]([O-])c1cn2c(n1)OC[C@@H](OCc1ccc(-c3ccc(OC(F)(F)F)cc3)c(F)c1)C2 | 0.055 µM (≈ 0.0249 µg/mL) | 0.51 µM (≈ 0.231 µg/mL) | > 128 µM | – | – | – |
| O=[N+]([O-])c1cn2c(n1)OCC(COc1ccc(OC(F)(F)F)cc1)C2 (stereo unspecified) | – | – | > 128 µM | – | – | – |
| O=[N+]([O-])c1cn2c(n1)OC[C@@H](OCc1c(Cl)cc(-c3ccc(OC(F)(F)F)cc3)cc1Cl)C2 | 0.62 µM (≈ 0.313 µg/mL) | 11 µM (≈ 5.55 µg/mL) | > 128 µM | 93% | 98% | – |
| O=[N+]([O-])c1cn2c(n1)OC[C@@H](OCc1ccc(-c3ccc(OC(F)(F)F)cc3)cc1F)C2 | 0.017 µM (≈ 0.00771 µg/mL) | 1.2 µM (≈ 0.544 µg/mL) | > 128 µM | 85% | 93% | AUC (Plasma): 202 µg/h/mL; Ratio [4]: 33; Cmax [6]: 12100 ng/mL; Ratio [7]: 2.2; half-life [8]: 22.3 h; AUC (Lung): 549 µg/h/mL; half-life [9]: 28.1 h; Cmax [10]: 6700 ng/mL; Kp [11]: 2.7 |
| O=[N+]([O-])c1cn2c(n1)OC[C@@H](OCc1ccc(-c3ccc(C(F)(F)F)cn3)cc1F)C2 | 0.055 µM (≈ 0.0241 µg/mL) | 2.3 µM (≈ 1.01 µg/mL) | > 128 µM | 77% | 90% | Ratio [4]: 51 |

| SMILES | MIC90 [1] | MIC90 [2] | IC50 (Vero) | remaining at 1 h [3] | remaining at 1 h [5] | other results |
| --- | --- | --- | --- | --- | --- | --- |
| O=[N+]([O-])c1cn2c(n1)OCC(COc1ccc(-c3ccc(F)cc3)cn1)C2 (stereo unspecified) | 0.03 µM (≈ 0.0111 µg/mL) | 25 µM (≈ 9.26 µg/mL) | > 128 µM | – | – | – |
| O=[N+]([O-])c1cn2c(n1)OCC(COc1ccc(-c3ccc(C(F)(F)F)cc3)cn1)C2 (stereo unspecified) | 0.04 µM (≈ 0.0168 µg/mL) | 109 µM (≈ 45.8 µg/mL) | > 128 µM | – | – | – |
| O=[N+]([O-])c1cn2c(n1)OCC(COc1ccc(-c3ccc(F)cc3)nc1)C2 (stereo unspecified) | 0.15 µM (≈ 0.0556 µg/mL) | 2 µM (≈ 0.741 µg/mL) | > 128 µM | – | – | – |
| O=[N+]([O-])c1cn2c(n1)OCC(COCc1ccc(OC(F)(F)F)cc1)C2 (stereo unspecified) | – | – | 46 µM | 41% | 71% | – |
| O=[N+]([O-])c1cn2c(n1)OC[C@@H](OCc1ccc(-c3ccc(OC(F)(F)F)cc3)c[n+]1[O-])C2 | 0.05 µM (≈ 0.0226 µg/mL) | 32 µM (≈ 14.5 µg/mL) | > 128 µM | – | – | – |
| O=[N+]([O-])c1cn2c(n1)OC[C@@H](COc1ccc(OC(F)(F)F)cc1)C2 | 0.23 µM (≈ 0.0826 µg/mL) | 1.9 µM (≈ 0.683 µg/mL) | > 128 µM | 80% | 91% | Ratio [4]: 0.7; Ratio [12]: 2; Ratio [13]: 5 |
| O=[N+]([O-])c1cn2c(n1)OC[C@@H](OCc1ccc(-c3ccc(OC(F)(F)F)cc3)cc1C(F)(F)F)C2 | 0.65 µM (≈ 0.327 µg/mL) | 2.4 µM (≈ 1.21 µg/mL) | > 128 µM | 96% | 100% | – |
| N#Cc1cc(-c2ccc(OC(F)(F)F)cc2)ccc1CO[C@@H]1COc2nc([N+](=O)[O-])cn2C1 | 0.053 µM (≈ 0.0244 µg/mL) | 0.45 µM (≈ 0.207 µg/mL) | > 128 µM | 88% | 91% | Ratio [4]: 2.9 |
| O=[N+]([O-])c1cn2c(n1)OCC(COc1ccc(-c3ccc(C(F)(F)F)cc3)nc1)C2 (stereo unspecified) | 0.22 µM (≈ 0.0925 µg/mL) | 1.3 µM (≈ 0.546 µg/mL) | > 128 µM | – | – | – |
| O=[N+]([O-])c1cn2c(n1)OCC(COCc1ccc(-c3ccc(OC(F)(F)F)cc3)cc1)C2 (stereo unspecified) | 0.3 µM (≈ 0.135 µg/mL) | > 128 µM | > 128 µM | – | – | – |
| O=[N+]([O-])c1cn2c(n1)OCC(COc1ccc(-c3ccc(OC(F)(F)F)cc3)nc1)C2 (stereo unspecified) | 0.15 µM (≈ 0.0655 µg/mL) | 6.9 µM (≈ 3.01 µg/mL) | > 128 µM | – | – | – |
| COc1cc(-c2ccc(OC(F)(F)F)cc2)ccc1CO[C@@H]1COc2nc([N+](=O)[O-])cn2C1 | 0.64 µM (≈ 0.298 µg/mL) | 5.5 µM (≈ 2.56 µg/mL) | > 128 µM | 87% | 88% | – |
| O=[N+]([O-])c1cn2c(n1)OC[C@H](COc1ccc(OC(F)(F)F)cc1)C2 | 0.5 µM (≈ 0.18 µg/mL) | 9 µM (≈ 3.23 µg/mL) | > 128 µM | 72% | 90% | Ratio [4]: 0.41; Ratio [12]: 2; Ratio [13]: 5 |
| O=[N+]([O-])c1cn2c(n1)OCC(COCc1ccc(-c3ccc(C(F)(F)F)cc3)cc1)C2 (stereo unspecified) | 0.49 µM (≈ 0.212 µg/mL) | > 128 µM | 38 µM | – | – | – |
| O=[N+]([O-])c1cn2c(n1)OCC(COc1ccc(-c3ccc(OC(F)(F)F)cc3)cn1)C2 (stereo unspecified) | 0.045 µM (≈ 0.0196 µg/mL) | 100 µM (≈ 43.6 µg/mL) | > 128 µM | – | – | – |
| O=[N+]([O-])c1cn2c(n1)OC[C@@H](OCc1ccc(OC(F)(F)F)cc1)C2 [PRETOMANID] | 0.5 µM (≈ 0.18 µg/mL) | 2.6 µM (≈ 0.934 µg/mL) | – | – | 82% | – |
| O=[N+]([O-])c1cn2c(n1)OCC(COc1ccc(-c3ccc(F)cc3)cc1)C2 (stereo unspecified) | 0.03 µM (≈ 0.0111 µg/mL) | 108 µM (≈ 39.9 µg/mL) | > 128 µM | – | – | – |
